In publication PMC11062894, “Protein-based bandpass filters for controlling cellular signaling with chemical inputs” (Nature Chemical Biology, 2023):
Where “and” joins values, the source holds several entries; their conditions need not be identical. Equal values may be shown once.

Tested on: GEMS receptors with CBPvene (Bcl2–LD3 and Bcl2high variants), STAT3-driven SEAP in HEK293T cells
Test: GEMS SEAP reporter assay, CBPvene (Bcl2high, LD3-v and Bcl2-v variants) with venetoclax
Format: cell-based
[1] = CBPVene-v4, Venetoclax 10000 nM
[2] = CBPVene-v4-Bcl2v2, Venetoclax 1 nM
[3] = CBPVene-v4-Bcl2v2, Venetoclax 3.16 nM
[4] = CBPVene-v4-Bcl2v2, Venetoclax 10 nM
[5] = CBPVene-v4-Bcl2v2, Venetoclax 31.6 nM
[6] = CBPVene-v4-Bcl2v2, Venetoclax 100 nM
[7] = CBPVene-v4-Bcl2v2, Venetoclax 316 nM
[8] = CBPVene-v4-Bcl2v2, Venetoclax 1000 nM
[9] = CBPVene-v4-Bcl2v2, Venetoclax 3160 nM
[10] = CBPVene-v4-Bcl2v2, Venetoclax 10000 nM
[11] = CBPVene-v4-LD3v1, Venetoclax 1 nM
[12] = CBPVene-v4-LD3v1, Venetoclax 3.16 nM

CC1(C)CCC(CN2CCN(c3ccc(C(=O)NS(=O)(=O)c4ccc(NCC5CCOCC5)c([N+](=O)[O-])c4)c(Oc4cnc5[nH]ccc5c4)c3)CC2)=C(c2ccc(Cl)cc2)C1 [Venetoclax]
Raw data of Independent repeat of CBPVene-v4 vs CBPVene-v4-LD3v1 (CBPVene-v4, Venetoclax 0.01 nM): 35.2999 and 34.8178 and 35.7656 | Normalized data Figure 5c (CBPVene-v4, Venetoclax 1 nM): 4.2459 and 4.713 and 4.374 | Normalized data Figure 5f (CBPVene-v4, Venetoclax 1 nM): 3.9625 and 4.391 and 3.175 | Raw data Figure 5c (CBPVene-v4, Venetoclax 1 nM): 40.3634 and 39.0365 and 35.7348 | Raw data Figure 5f (CBPVene-v4, Venetoclax 1 nM): 25.8055 and 26.2397 and 18.4029 | Raw data of Independent repeat of CBPVene-v4 vs CBPVene-v4-LD3v1 (CBPVene-v4, Venetoclax 1 nM): 38.7674 and 35.097 and 34.871 | Normalized data Figure 5c (CBPVene-v4, Venetoclax 3.16 nM): 3.941 and 4.809 and 4.361 | Normalized data Figure 5f (CBPVene-v4, Venetoclax 3.16 nM): 3.622 and 4.227 and 3.164 | Raw data Figure 5c (CBPVene-v4, Venetoclax 3.16 nM): 37.466 and 39.8351 and 35.629 | Raw data Figure 5f (CBPVene-v4, Venetoclax 3.16 nM): 23.589 and 25.2624 and 18.3382 | Raw data of Independent repeat of CBPVene-v4 vs CBPVene-v4-LD3v1 (CBPVene-v4, Venetoclax 3.16 nM): 37.9892 and 34.5814 and 35.8384 | Normalized data Figure 5c (CBPVene-v4, Venetoclax 10 nM): 8.251 and 9.2534 and 8.61 | Normalized data Figure 5f (CBPVene-v4, Venetoclax 10 nM): 5.138 and 5.367 and 4.508 | Raw data Figure 5c (CBPVene-v4, Venetoclax 10 nM): 78.4344 and 76.6512 and 70.3479 | Raw data Figure 5f (CBPVene-v4, Venetoclax 10 nM): 33.4586 and 32.0727 and 26.1315 | Raw data of Independent repeat of CBPVene-v4 vs CBPVene-v4-LD3v1 (CBPVene-v4, Venetoclax 10 nM): 40.747 and 40.7067 and 37.4113 | Normalized data Figure 5c (CBPVene-v4, Venetoclax 31.6 nM): 23.4087 and 23.5513 and 23.3621 | Normalized data Figure 5f (CBPVene-v4, Venetoclax 31.6 nM): 15.4727 and 18.6639 and 9.968 | Raw data Figure 5c (CBPVene-v4, Venetoclax 31.6 nM): 222.533 and 195.089 and 190.881 | Raw data Figure 5f (CBPVene-v4, Venetoclax 31.6 nM): 100.765 and 111.541 and 57.7785 | Raw data of Independent repeat of CBPVene-v4 vs CBPVene-v4-LD3v1 (CBPVene-v4, Venetoclax 31.6 nM): 75.7769 and 63.5945 and 72.9306 | Normalized data Figure 5c (CBPVene-v4, Venetoclax 100 nM): 64.2766 and 73.1224 and 63.32 | Normalized data Figure 5f (CBPVene-v4, Venetoclax 100 nM): 42.576 and 45.1446 and 47.2654 | Raw data Figure 5c (CBPVene-v4, Venetoclax 100 nM): 611.042 and 605.715 and 517.36 | Raw data Figure 5f (CBPVene-v4, Venetoclax 100 nM): 277.273 and 269.798 and 273.956 | Raw data of Independent repeat of CBPVene-v4 vs CBPVene-v4-LD3v1 (CBPVene-v4, Venetoclax 100 nM): 129.31 and 117.373 and 126.839 | Normalized data Figure 5c (CBPVene-v4, Venetoclax 316 nM): 100 | Normalized data Figure 5f (CBPVene-v4, Venetoclax 316 nM): 68.7371 and 83.2998 and 76.2167 | Raw data Figure 5c (CBPVene-v4, Venetoclax 316 nM): 950.644 and 828.357 and 817.055 | Raw data Figure 5f (CBPVene-v4, Venetoclax 316 nM): 447.645 and 497.825 and 441.762 | Raw data of Independent repeat of CBPVene-v4 vs CBPVene-v4-LD3v1 (CBPVene-v4, Venetoclax 316 nM): 169.324 and 158.179 and 180.661 | Normalized data Figure 5c (CBPVene-v4, Venetoclax 1000 nM): 99.3535 and 99.2484 and 89.7215 | Normalized data Figure 5f (CBPVene-v4, Venetoclax 1000 nM): 100 | Raw data Figure 5c (CBPVene-v4, Venetoclax 1000 nM): 944.498 and 822.131 and 733.074 | Raw data Figure 5f (CBPVene-v4, Venetoclax 1000 nM): 651.243 and 597.631 and 579.613 | Raw data of Independent repeat of CBPVene-v4 vs CBPVene-v4-LD3v1 (CBPVene-v4, Venetoclax 1000 nM): 146.952 and 139.539 and 151.905 | Normalized data Figure 5c (CBPVene-v4, Venetoclax 3160 nM): 79.357 and 89.4953 and 82.0208 | Normalized data Figure 5f (CBPVene-v4, Venetoclax 3160 nM): 65.0047 and 75.3611 and 76.07 | Raw data Figure 5c (CBPVene-v4, Venetoclax 3160 nM): 754.403 and 741.34 and 670.156 | Raw data Figure 5f (CBPVene-v4, Venetoclax 3160 nM): 423.338 and 450.382 and 440.912 | Raw data of Independent repeat of CBPVene-v4 vs CBPVene-v4-LD3v1 (CBPVene-v4, Venetoclax 3160 nM): 80.4284 and 77.0562 and 76.9119 | Normalized data Figure 5c [1]: 37.7692 and 41.8946 and 33.9505 | Normalized data Figure 5f [1]: 42.6019 and 46.7992 and 47.9312 | Raw data Figure 5c [1]: 359.051 and 347.036 and 277.394 | Raw data Figure 5f [1]: 277.442 and 279.687 and 277.816 | Raw data of Independent repeat of CBPVene-v4 vs CBPVene-v4-LD3v1 [1]: 30.3195 and 25.7432 and 26.899 | Normalized data Figure 5f [2]: 10.7266 and 9.876 and 10.4991 | Raw data Figure 5f [2]: 31.1918 and 36.3952 and 31.7379 | Normalized data Figure 5f [3]: 10.8133 and 9.981 and 9.46 | Raw data Figure 5f [3]: 31.4437 and 36.7806 and 28.5959 | Normalized data Figure 5f [4]: 12.5098 and 10.2311 and 12.3238 | Raw data Figure 5f [4]: 36.377 and 37.7021 and 37.2539 | Normalized data Figure 5f [5]: 23.9871 and 21.8452 and 18.9874 | Raw data Figure 5f [5]: 69.7518 and 80.5008 and 57.3972 | Normalized data Figure 5f [6]: 72.8611 and 61.7154 and 72.9933 | Raw data Figure 5f [6]: 211.871 and 227.425 and 220.652 | Normalized data Figure 5f [7]: 100 | Raw data Figure 5f [7]: 290.788 and 368.506 and 302.291 | Normalized data Figure 5f [8]: 80.3655 and 74.9934 and 84.5393 | Raw data Figure 5f [8]: 233.694 and 276.355 and 255.555 | Normalized data Figure 5f [9]: 44.2102 and 40.566 and 46.2986 | Raw data Figure 5f [9]: 128.558 and 149.488 and 139.957 | Normalized data Figure 5f [10]: 14.2742 and 12.3963 and 14.8986 | Raw data Figure 5f [10]: 41.5078 and 45.6809 and 45.0373 | Raw data of Independent repeat of CBPVene-v4 vs CBPVene-v4-LD3v1 (CBPVene-v4-LD3v1, Venetoclax 0.01 nM): 13.3313 and 13.792 and 13.1319 | Normalized data Figure 5c [11]: 19.7956 and 13.458 and 12.3801 | Raw data Figure 5c [11]: 19.1053 and 16.682 and 17.9097 | Raw data of Independent repeat of CBPVene-v4 vs CBPVene-v4-LD3v1 [11]: 12.6379 and 12.8648 and 13.2123 | Normalized data Figure 5c [12]: 17.4061 and 14.8696 and 11.4945 | Raw data Figure 5c [12]: 16.7992 and 18.4317 and 16.6285 | Raw data of Independent repeat of CBPVene-v4 vs CBPVene-v4-LD3v1 [12]: 10.9947 and 13.5809 and 10.4154 | Normalized data Figure 5c (CBPVene-v4-LD3v1, Venetoclax 10 nM): 20.3471 and 18.6998 and 14.8112
